Reference: patent publication US7598244B2, “[1,2,4]triazolo[1,5,a]pyrimidin-2-ylurea derivative and use thereof” (Nippon Kayaku Kabushiki Kaisha, priority 2003, dated 2009)

Assays:
Assay type in all cases: cell-based
CD83 = experiment: Expression of antigen-presenting and costimulatory molecules of human peripheral blood-derived dendritic cells: CD83
Protocol: (§1) Action on Expression of Antigen-Presenting Molecules and Costimulatory Molecules of Human Peripheral Blood-Derived Dendritic Cells
The dendritic cells obtained by the same method as in Test Example 2 were suspended in RPMI 1640 comprising 10% FCS containing 500 U/ml GM-CSF, 50 ng/ml IL-4, and 100 U/ml human recombinant tumor necrosis factor (2.5×10^6 cells/ml). Thereafter, the suspension was inoculated into a 6-well plate at an amount of 2.0 ml/well, and the test compound was then added thereto. The mixture was cultured at 37° C. for 3 days in an incubator containing 5% carbon dioxide. Thereafter, the suspended cells were recovered. The cells were then stained with fluoroisothiocyanate-labeled mouse monoclonal antibodies reacting with MHC class I (Bechman Coulter), CD1a (Immunotech), CD40 (Pharmingen), CD80 (Pharmingen), and CD83 (Immunotech). Thereafter, mean fluorescence intensity and the ratio of positive cells were measured by flow cytometry. The expression level was calculated by the formula “the mean fluorescence intensity x the ratio of positive cells,” and the inhibition rate of the surface antigen expression level of dendritic cells was then obtained by the following formula (8).
[formula] • Eexp: Expression level of surface antigens of dendritic cells cultured in the presence of test compound • Cexp: Expression level of surface antigens of dendritic cells cultured in the absence of test compound

[1] = test system: MHC class I molecules of T1 cells (human lymphoma cell line 174×CEM.); experiment: Effect on expression of MHC class I from T1 cells (flow cytometry, MFI); settings: 3 days culture
Summary of the method: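 EC20 is the compound level that lowers MHC class I MFI by 20% relative to compound-free cultures. Read-out was flow cytometry after FITC W6/32 staining.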

CD1a = experiment: Expression of antigen-presenting and costimulatory molecules of human peripheral blood-derived dendritic cells: CD1a; settings: Analyte 1 (dendritic cells of one healthy subject), 3 days
Protocol: as §1
The dendritic cells obtained by the same method as in Test Example 2 were suspended in RPMI 1640 comprising 10% FCS containing 500 U/ml GM-CSF, 50 ng/ml IL-4, and 100 U/ml human recombinant tumor necrosis factor (2.5×10^6 cells/ml). Thereafter, the suspension was inoculated into a 6-well plate at an amount of 2.0 ml/well, and the test compound was then added thereto. The mixture was cultured at 37° C. for 3 days in an incubator containing 5% carbon dioxide. Thereafter, the suspended cells were recovered. The cells were then stained with fluoroisothiocyanate-labeled mouse monoclonal antibodies reacting with MHC class I (Bechman Coulter), CD1a (Immunotech), CD40 (Pharmingen), CD80 (Pharmingen), and CD83 (Immunotech). Thereafter, mean fluorescence intensity and the ratio of positive cells were measured by flow cytometry. The expression level was calculated by the formula “the mean fluorescence intensity x the ratio of positive cells,” and the inhibition rate of the surface antigen expression level of dendritic cells was then obtained by the following formula (8). […]

## CC(C)NC(=O)Nc1nc2nccc(-c3cccs3)n2n1 [Example 029, 1-isopropyl-3-(7-thiophen-2-yl[1,2,4]triazolo[1,5-a]pyrimidin-2-yl)urea]
CD83; Analyte 1, 3 days
  Expression inhibition rate by test compound (%), CD83: 62.6%
CD83; Analyte 2, 3 days
  Expression inhibition rate by test compound (%), CD83: 88.6%
CD83; Analyte 3, 3 days
  Expression inhibition rate by test compound (%), CD83: 42.7%
[1]
  EC20 (concentration necessary for suppressing 20% of the expression level of MHC class I molecules): 234 nM
CD1a
  Expression inhibition rate by test compound (%), CD1a: 55.6%
